# Patent publication US20250197375A1, “PYRIMIDINES AND METHODS OF THEIR USE” (Kineta, Inc., priority 2021, published 2025)
# Legend:
# [1] = target: full-length human PIKFYVE (Homo sapiens (Human), UniProt Q9Y2I7, L932S/Q1183K/Q995L/S1033A/S696N/T998S); assay: PIKfyve Biochemical Assay (ADP-Glo Kinase assay, GST-PIKFYVE); conditions: ADP-Glo, 1 hour at room temperature, 10 μM to 3 nM in duplicate; read-out: PIKfyve Biochemistry IC50 (μM)*
# Description: PIKfyve Biochemical Assay. The biochemical PIKFyve inhibition assays were run by Cama Biosciences according to proprietary methodology based on the Promega ADP-Glo™ Kinase assay. […] GST-PIKFYVE was purified by using glutathione sepharose chromatography and used in an ADP-Glo™ Kinase assay (Promega). Reactions were set up by adding the test compound solution, substrate solution, ATP solution and kinase solution, each at 4× final concentrations. Reactions were prepared with assay buffer (50 mM MOPS, 1 mM DTT, pH7.2), mixed, and incubated in black 384 well polystyrene plates for 1 hour at room temperature. ADP-Glo™ reagent was then added for 40 minutes, followed by kinase detection reagent for an additional 40 minutes. The kinase activity was evaluated by detecting relative light units on a luminescence plate reader. Samples were run in duplicate from 10 μM to 3 nM. […] IC50 values were calculated from concentration versus percent inhibition curves by fitting to a four-parameter logistic curve.
# The biochemical PIKFyve inhibition assays were run by Cama Biosciences according to proprietary methodology based on the Promega ADP-Glo™ Kinase assay. […] GST-PIKFYVE was purified by using glutathione sepharose chromatography and used in an ADP-Glo™ Kinase assay (Promega).
# Reactions were set up by adding the test compound solution, substrate solution, ATP solution and kinase solution, each at 4× final concentrations. Reactions were prepared with assay buffer (50 mM MOPS, 1 mM DTT, pH7.2), mixed, and incubated in black 384 well polystyrene plates for 1 hour at room temperature. ADP-Glo™ reagent was then added for 40 minutes, followed by kinase detection reagent for an additional 40 minutes. The kinase activity was evaluated by detecting relative light units on a luminescence plate reader. Samples were run in duplicate from 10 uM to 3 nM. […] IC50 values were calculated from concentration vs % inhibition curves by fitting to a four-parameter logistic curve.
# [2] = target: PIKfyve (Homo sapiens (Human), UniProt Q9Y2I7); assay: PIKfyve EEA1 Assay (endosomal vesicle enlargement, high content imaging in U2OS cells); assay type: cell-based; conditions: 3 hours of treatment, activity relative to maximal APY0201 activity
# PIKfyve, sequence (Q9Y2I7 whole entry): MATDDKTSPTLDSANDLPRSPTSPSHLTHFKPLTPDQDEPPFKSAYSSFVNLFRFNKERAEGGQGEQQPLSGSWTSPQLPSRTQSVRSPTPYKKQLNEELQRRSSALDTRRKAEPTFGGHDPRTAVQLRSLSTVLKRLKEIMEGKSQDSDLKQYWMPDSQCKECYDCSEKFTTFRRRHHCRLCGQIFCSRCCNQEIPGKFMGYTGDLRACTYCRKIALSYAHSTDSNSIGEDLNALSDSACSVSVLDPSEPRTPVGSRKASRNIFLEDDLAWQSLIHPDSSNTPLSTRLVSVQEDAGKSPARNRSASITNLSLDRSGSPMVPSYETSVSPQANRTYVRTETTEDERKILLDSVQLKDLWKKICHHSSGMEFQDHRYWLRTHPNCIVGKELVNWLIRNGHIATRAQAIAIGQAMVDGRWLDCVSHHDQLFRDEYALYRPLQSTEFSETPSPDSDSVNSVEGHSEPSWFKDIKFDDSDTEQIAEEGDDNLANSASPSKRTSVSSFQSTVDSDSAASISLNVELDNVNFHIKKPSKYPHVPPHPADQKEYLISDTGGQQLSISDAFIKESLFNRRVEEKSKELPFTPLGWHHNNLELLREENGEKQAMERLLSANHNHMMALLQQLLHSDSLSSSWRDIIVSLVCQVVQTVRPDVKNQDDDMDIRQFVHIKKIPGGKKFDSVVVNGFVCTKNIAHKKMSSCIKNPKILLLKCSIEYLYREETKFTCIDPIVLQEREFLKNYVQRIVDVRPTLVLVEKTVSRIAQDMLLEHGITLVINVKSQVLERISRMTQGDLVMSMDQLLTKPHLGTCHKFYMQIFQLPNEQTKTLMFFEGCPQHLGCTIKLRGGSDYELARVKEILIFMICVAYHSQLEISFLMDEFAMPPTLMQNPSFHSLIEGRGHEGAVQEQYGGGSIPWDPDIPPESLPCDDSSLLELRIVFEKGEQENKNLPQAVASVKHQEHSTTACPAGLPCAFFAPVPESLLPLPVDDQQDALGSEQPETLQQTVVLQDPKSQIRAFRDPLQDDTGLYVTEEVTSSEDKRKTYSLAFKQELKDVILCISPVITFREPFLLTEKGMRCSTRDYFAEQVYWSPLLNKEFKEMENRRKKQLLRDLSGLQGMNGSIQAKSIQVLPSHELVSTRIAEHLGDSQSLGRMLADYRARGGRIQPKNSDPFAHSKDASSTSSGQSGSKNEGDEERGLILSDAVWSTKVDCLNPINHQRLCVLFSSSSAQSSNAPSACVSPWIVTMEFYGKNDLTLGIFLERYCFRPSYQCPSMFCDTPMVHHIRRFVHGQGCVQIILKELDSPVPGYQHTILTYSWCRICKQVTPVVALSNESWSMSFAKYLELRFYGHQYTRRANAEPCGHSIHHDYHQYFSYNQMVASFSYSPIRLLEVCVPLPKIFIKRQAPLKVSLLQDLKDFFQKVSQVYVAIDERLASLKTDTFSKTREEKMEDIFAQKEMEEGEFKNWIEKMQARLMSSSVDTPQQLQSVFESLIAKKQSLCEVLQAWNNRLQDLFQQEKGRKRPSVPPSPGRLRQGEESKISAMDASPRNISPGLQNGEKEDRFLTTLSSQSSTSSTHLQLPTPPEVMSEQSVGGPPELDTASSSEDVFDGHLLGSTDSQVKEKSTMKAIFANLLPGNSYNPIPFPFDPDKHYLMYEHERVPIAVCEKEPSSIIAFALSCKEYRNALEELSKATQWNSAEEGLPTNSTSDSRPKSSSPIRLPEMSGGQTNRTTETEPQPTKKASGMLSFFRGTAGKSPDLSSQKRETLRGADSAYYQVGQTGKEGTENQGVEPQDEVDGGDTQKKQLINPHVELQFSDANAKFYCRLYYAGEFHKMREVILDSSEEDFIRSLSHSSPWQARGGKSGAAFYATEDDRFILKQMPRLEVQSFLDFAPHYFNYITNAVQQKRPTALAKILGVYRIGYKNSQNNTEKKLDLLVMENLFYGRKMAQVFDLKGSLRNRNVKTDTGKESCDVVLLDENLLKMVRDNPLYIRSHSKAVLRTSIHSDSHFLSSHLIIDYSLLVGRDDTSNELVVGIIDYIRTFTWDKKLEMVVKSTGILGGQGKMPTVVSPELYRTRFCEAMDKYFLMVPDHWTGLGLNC
# Description: PIKfyve EEA1 Assay. Genetic or pharmacological disruption of PIKfyve activity results in enlargement of endosomal vesicles. This enlargement was utilized as a surrogate readout of PIKFyve inhibition for routine triage of PIKfyve inhibitors. U2OS cells grown in 96-well assay plates were treated with compound diluted in DMEM media containing 10% fetal bovine serum. After 3 hours of treatment, cells were fixed with paraformaldehyde, permeabilized with 0.2% Triton-X in phosphate buffered saline and stained against EEA1. During the secondary antibody staining, cells were also stained with CellMask™ Deep Red and Hoechst to detect cytoplasms and nuclei respectively. Endosomal structures were visualized using a high content imager at 40× magnification. Images were analyzed using a linear classifier algorithm integrating EEA1 spot size, intensity and texture trained on images of cells treated with the potent reference compound APY0201. Compound activity was calculated by subtracting the DMSO signal and calculating percentage activity relative to maximal APY0201 activity. IC50 values were then calculated from concentration versus percent inhibition data by logistic regression.
# full-length human PIKFYVE, sequence (Q9Y2I7 whole entry S696N/L932S/Q995L/T998S/S1033A/Q1183K): as the sequence (Q9Y2I7 whole entry) above, with S696N, L932S, Q995L, T998S, S1033A, Q1183K counted along it
Compound,IC50 [1] [µM],IC50 [2] [µM]
"COc1c(Nc2ccncc2)nc(N2CCOCC2)nc1-c1cccc(N2CCN(C)C(=O)C2)c1 [Compound 15, 4-(3-(5-methoxy-2-morpholino-6-(pyridin-4-ylamino)pyrimidin-4-yl)phenyl)-1-methylpiperazin-2-one]",0.01 to 0.1,0.1 to 1
"Cn1ccc(-c2cccc(-c3nc(N4CCOCC4)nc(Nc4ccncc4)c3-c3ncco3)c2)n1 [Compound 74, 6-[3-(1-methylpyrazol-3-yl)phenyl]-2-morpholino-5-oxazol-2-yl-N-(4-pyridyl)pyrimidin-4-amine]",0.01 to 0.1,0.1 to 1
COc1c(Nc2ccncc2)nc(N2CCOCC2)nc1-c1cccc(-c2nn(C)cc2C)c1 [Compound 41],0.01 to 0.1,0.1 to 1
"COc1c(Nc2cccnc2)nc(N2CCOCC2)nc1-c1cncc(-c2ccn(C)n2)c1 [Compound 19, 5-methoxy-6-(5-(1-methyl-1H-pyrazol-3-yl)pyridin-3-yl)-2-morpholino-N-(pyridin-3-yl)pyrimidin-4-amine]",0.01 to 0.1,0.1 to 1
"Cn1c(=O)c2c(Nc3ccncc3)nc(N3CCOCC3)nc2c2cc(-n3cccn3)ccc21 [Compound 65, 6-methyl-2-morpholino-9-pyrazol-1-yl-4-(4-pyridylamino)pyrimido[5,4-c]quinolin-5-one]",0.01 to 0.1,1 to 10
"COc1c(Nc2ccncc2)nc(N2CCOCC2)nc1-c1ccnc(-c2ccn(C)n2)c1 [Compound 14, 5-methoxy-6-(2-(1-methyl-H-pyrazol-3-yl)pyridin-4-yl)-2-morpholino-N-(pyridin-4-yl)pyrimidin-4-amine]",< 0.01,0.01 to 0.1
"COc1ccc(-c2nc(N3CCOCC3)nc(Nc3ccncc3)c2OC)cc1OC [Compound 13, 6-(3,4-dimethoxyphenyl)-5-methoxy-2-morpholino-N-(pyridin-4-yl)pyrimidin-4-amine]",< 0.01,0.1 to 1
"COc1c(Nc2ccncc2)nc(N2CCOCC2)nc1-c1cncc(-c2ccn(C)n2)c1 [Compound 7, 5-methoxy-6-(5-(1-methyl-1H-pyrazol-3-yl)pyridin-3-yl)-2-morpholino-N-(pyridin-4-yl)pyrimidin-4-amine]",< 0.01,0.01 to 0.1
"COc1cc(-c2nc(N3CCOCC3)nc(Nc3ccncc3)c2OC)cnc1OC [Compound 12, 6-(5,6-dimethoxypyridin-3-yl)-5-methoxy-2-morpholino-N-(pyridin-4-yl)pyrimidin-4-amine]",< 0.01,0.1 to 1
"COc1c(Nc2ccc(C)cc2)nc(N2CCOCC2)nc1-c1cc(-c2ccn(C)n2)cnn1 [Compound 17, 5-methoxy-6-(5-(1-methyl-1H-pyrazol-3-yl)pyridazin-3-yl)-2-morpholino-N-(p-tolyl)pyrimidin-4-amine]",< 0.01,0.01 to 0.1
COc1c(Nc2ccncc2)nc(N2CCOCC2)nc1-c1cncc(-c2cccnn2)c1 [Compound 57],< 0.01,0.1 to 1
"COc1cn(C)nc1-c1cccc(-c2nc(N3CCOCC3)nc(Nc3ccncc3)c2OC)c1 [Compound 47, 5-methoxy-6-(3-(4-methoxy-1-methyl-1H-pyrazol-3-yl)phenyl)-2-morpholino-N-(pyridin-4-yl)pyrimidin-4-amine]",0.01 to 0.1,0.1 to 1
"COc1c(Nc2ccncc2)nc(N2CCOCC2)nc1-c1cccc(C(=O)N(C)C)c1 [Compound 11, 3-(5-methoxy-2-morpholino-6-(pyridin-4-ylamino)pyrimidin-4-yl)-N,N-dimethylbenzamide]",0.01 to 0.1,1 to 10
"COc1c(-c2ccncc2)nc(N2CCOCC2)nc1-c1cccc(-c2ccn(C)n2)c1 [Compound 30, 4-(5-methoxy-4-(3-(1-methyl-1H-pyrazol-3-yl)phenyl)-6-(pyridin-4-yl)pyrimidin-2-yl)morpholine]",0.01 to 0.1,1 to 10
"COc1c(Nc2ccncc2)nc(N2CCCC2=O)nc1-c1cccc(-c2ccn(C)n2)c1 [Compound 44, 1-(5-methoxy-4-(3-(1-methyl-1H-pyrazol-3-yl)phenyl)-6-(pyridin-4-ylamino)pyrimidin-2-yl)pyrrolidin-2-one]",1 to 10,> 10
"COc1c(C(=O)NC2CC2)nc(N2CCOCC2)nc1-c1cccc(-c2ccn(C)n2)c1 [Compound 6, N-cyclopropyl-4-methoxy-6-(3-(1-methyl-H-pyrazol-3-yl)phenyl)-2-morpholino pyrimidine-4-carboxamide]",0.01 to 0.1,1 to 10

Compound,IC50 [1] [µM],IC50 [2] [µM]
"COc1c(Nc2ccncc2)nc(N2CCOCC2)nc1-c1cccc(-n2cccn2)c1 [Compound 8, 6-(3-(1H-pyrazol-1-yl)phenyl)-5-methoxy-2-morpholino-N-(pyridin-4-yl)pyrimidin-4-amine]",< 0.01,0.1 to 1
COc1c(-c2cccc(-c3ccn(C)n3)c2)nc(N2CCOCC2)nc1C(O)c1ccncc1 (centres unmarked) [Compound 32],0.1 to 1,1 to 10
"COc1c(Nc2ccncc2)nc(N2CCOCC2)nc1-c1cccc(-c2ncccn2)c1 [Compound 16, 5-methoxy-2-morpholino-N-(pyridin-4-yl)-6-(3-(pyrimidin-2-yl)phenyl)pyrimidin-4-amine]",< 0.01,0.01 to 0.1
"Cn1ccc(-c2ccc3c(c2)c2nc(N4CCOCC4)nc(Nc4ccncc4)c2c(=O)n3C)n1 [Compound 71, 6-methyl-9-(1-methylpyrazol-3-yl)-2-morpholino-4-(4-pyridylamino)pyrimido[5,4-c]quinolin-one]",,0.1 to 1
"CN1CCCC(Oc2nc(N3CCOCC3)nc3c2OCc2cc(-c4ccccc4)nn2-3)C1 (centres unmarked) [Compound 35, 4-((1-methylpiperidin-3-yl)oxy)-2-morpholino-8-phenyl-6H-pyrazolo[1,5-d]pyrimido[5,4-b][1,4]oxazine]",,1 to 10
"COc1c(-c2cccc(-c3ccn(C)n3)c2)nc(N2CCOCC2)nc1-c1ccc2ncccc2c1 [Compound 58, 4-(5-methoxy-4-(3-(1-methyl-1H-pyrazol-3-yl)phenyl)-6-(quinolin-6-yl)pyrimidin-2-yl)morpholine]",,0.1 to 1
"COc1c(Nc2cccnc2)nc(N2CCOCC2)nc1-c1cccc(N2CCN(C)C(=O)C2)c1 [Compound 27, 4-(3-(5-methoxy-2-morpholino-6-(pyridin-3-ylamino)pyrimidin-4-yl)phenyl)-1-methylpiperazin-2-one]",,1 to 10
"COc1c(Nc2ccncc2)nc(OC[C@H]2COCCN2)nc1-c1cccc(-c2ccn(C)n2)c1 [Compound 42, (R)-5-methoxy-6-(3-(1-methyl-1H-pyrazol-3-yl)phenyl)-2-(morpholin-3-ylmethoxy)-N-(pyridin-4-yl)pyrimidin-4-amine]",,1 to 10
Cn1ccc(-c2cccc(-c3nc(N4CCOCC4)nc(Nc4cccnc4)c3[S+](C)[O-])c2)n1 (centres unmarked) [Compound 59],,1 to 10
COc1c(N2CCOCC2)nc(-c2cccc(-n3cccn3)c2)nc1N1CCN(C)C(=O)C1 [Compound 36],,1 to 10
"COc1c(Nc2cccnc2)nc(N2CCOCC2)nc1-c1cccc(N2CCC(O)C2)c1 (centres unmarked) [Compound 26, 1-(3-(5-methoxy-2-morpholino-6-(pyridin-3-ylamino)pyrimidin-4-yl)phenyl)pyrrolidin-3-ol]",,1 to 10
"COc1c(-c2cccc(-c3ccn(C)n3)c2)nc(N2CCOCC2)nc1-c1cnn(C)c1 [Compound 52, 4-(5-methoxy-4-(3-(1-methyl-1H-pyrazol-3-yl)phenyl)-6-(1-methyl-1H-pyrazol-4-yl)pyrimidin-2-yl)morpholine]",,1 to 10
"COc1c(Nc2cccnc2)nc(N2CCOCC2)nc1-c1cccc(N2CCOCC2=O)c1 [Compound 28, 4-(3-(5-methoxy-2-morpholino-6-(pyridin-3-ylamino)pyrimidin-4-yl)phenyl)morpholin-3-one]",,1 to 10
"COc1c(-c2cccc(-n3cccn3)c2)nc(N2CCOCC2)nc1-c1nc(-c2ccccc2)c[nH]1 [Compound 61, 4-(4-(3-(1H-pyrazol-1-yl)phenyl)-6-methoxy-6-(4-phenyl-1H-imidazol-2-yl)pyrimidin-2-yl)morpholine]",,1 to 10
COc1c(Nc2cccnc2)nc(N2CCOCC2)nc1-c1cccc(C(=O)N(C)C)c1 [Compound 24],,1 to 10
